Experimental data reported in PubChem BioAssay AID330 (DTP/NCI, 2004).
Where “and” joins values, the source holds several entries; their conditions need not be identical. Identical values can stand only once. Toxic doses and inconclusive results are not listed.

Tested on: P388 leukemia ip, CD2F1 mice, survival T/C
Experiment: NCI In Vivo Anticancer Drug Screen. Data for tumor model P388 Leukemia (intraperitoneal) in CD2F1 (CDF1) mice
Details: endpoint: median survival time, higher = longer survival
Procedure, shortened: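 Mice carrying the transplanted tumor received test compound or vehicle. Survival was recorded in each group, and the value is the treated-group measurement divided by that of the vehicle-treated control group.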

[1] = dose: 50.0 mg/kg/injection, schedule: Q01DX005 (ip), vehicle: Klucel (hydroxypropylcellulose) (HPC)
[2] = dose: 100.0 mg/kg/injection, schedule: Q01DX005 (ip), vehicle: Klucel (hydroxypropylcellulose) (HPC)
[3] = dose: 50.0 mg/kg/injection, schedule: Q01DX005 (ip), vehicle: saline with Tween-80
[4] = dose: 100.0 mg/kg/injection, schedule: Q01DX005 (ip), vehicle: saline with Tween-80
[5] = dose: 200.0 mg/kg/injection, schedule: Q01DX005 (ip), vehicle: saline with Tween-80

CC1C[C@@H]2[C@H]([C@@H](O)C[C@@]3(C)[C@H]2CC[C@]3(O)C(=O)CF)[C@@]2(C)CCC(=O)C=C12 (stereo partly drawn)
T/C (dose: 100.0 mg/kg/injection, schedule: Q01DX009 (ip), vehicle: saline with Tween-80): 100 % of control
T/C (dose: 100.0 mg/kg/injection, schedule: Q04DX003 (ip), vehicle: saline with Tween-80): 109 % of control
T/C (dose: 200.0 mg/kg/injection, schedule: Q01DX009 (ip), vehicle: saline with Tween-80): 95 % of control
T/C (dose: 200.0 mg/kg/injection, schedule: Q04DX003 (ip), vehicle: saline with Tween-80): 109 % of control
T/C (dose: 400.0 mg/kg/injection, schedule: Q04DX003 (ip), vehicle: saline with Tween-80): 100 % of control

CC(C)(C)c1ccc(/C=N/NC(=O)c2cccnc2)cc1
T/C [1]: 98 % of control
T/C [2]: 103 % of control

C1=CC2OC1c1cc3c(cc12)[C@@H]1C=C[C@@H]3O1
T/C [3]: 96 % of control
T/C [4]: 105 % of control
T/C [5]: 91 % of control

c1ccc2c(c1)ccc1c3ccccc3sc21
T/C [1]: 101 % of control
T/C [2]: 110 % of control
T/C (dose: 200.0 mg/kg/injection, schedule: Q01DX005 (ip), vehicle: Klucel (hydroxypropylcellulose) (HPC)): 103 % of control

C=C1COC(O)(C2OCOC(C3CC(=O)NC(=O)C3)C2O)C1C (stereo not drawn)
T/C (dose: 0.03 mg/kg/injection, schedule: Q01DX009 (ip), vehicle: water): 107 % of control
T/C (dose: 2.0 micrograms/kg/injection, schedule: Q01DX009 (ip), vehicle: water): 119 % of control
T/C (dose: 4.0 micrograms/kg/injection, schedule: Q01DX009 (ip), vehicle: water): 119 % of control
T/C (dose: 7.5 micrograms/kg/injection, schedule: Q01DX009 (ip), vehicle: water): 117 % of control
T/C (dose: 32.0 micrograms/kg/injection, schedule: Q01DX009 (ip), vehicle: water): 181 % of control

Cc1ccc(S(=O)(=O)NCCC(=O)Nc2ccccc2)cc1
T/C (dose: 25.0 mg/kg/injection, schedule: Q01DX009 (ip), vehicle: other): 102 % of control
T/C (dose: 50.0 mg/kg/injection, schedule: Q01DX009 (ip), vehicle: other): 103 % of control
T/C (dose: 100.0 mg/kg/injection, schedule: Q01DX009 (ip), vehicle: other): 103 % of control
T/C (dose: 200.0 mg/kg/injection, schedule: Q01DX009 (ip), vehicle: other): 102 % of control
T/C (dose: 400.0 mg/kg/injection, schedule: Q01DX009 (ip), vehicle: other): 96 % of control

O=C(c1ccccc1)c1cccs1
T/C (dose: 22.0 mg/kg/injection, schedule: Q01DX009 (ip), vehicle: saline with Tween-80): 113 % of control
T/C (dose: 44.0 mg/kg/injection, schedule: Q01DX009 (ip), vehicle: saline with Tween-80): 104 % of control
T/C (dose: 88.0 mg/kg/injection, schedule: Q01DX009 (ip), vehicle: saline with Tween-80): 109 % of control

OC(Cc1ccccc1)c1ccccc1 (stereo not drawn)
T/C (dose: 31.25 mg/kg/injection, schedule: Q01DX009 (ip), vehicle: saline + Tween-80 + alcohol): 107 % of control
T/C (dose: 62.5 mg/kg/injection, schedule: Q01DX009 (ip), vehicle: saline + Tween-80 + alcohol): 100 % of control
T/C (dose: 100.0 mg/kg/injection, schedule: Q01DX009 (ip), vehicle: suspension in saline): 104 % of control
T/C (dose: 125.0 mg/kg/injection, schedule: Q01DX009 (ip), vehicle: saline + Tween-80 + alcohol): 98 % of control
T/C (dose: 200.0 mg/kg/injection, schedule: Q01DX009 (ip), vehicle: suspension in saline): 98 % of control
T/C (dose: 250.0 mg/kg/injection, schedule: Q01DX009 (ip), vehicle: saline + Tween-80 + alcohol): 102 % of control
T/C (dose: 400.0 mg/kg/injection, schedule: Q01DX009 (ip), vehicle: suspension in saline): 98 % of control

C=CCCCC1(c2ccccc2)C(=O)Oc2ccccc21 (stereo not drawn)
T/C [3]: 98 % of control
T/C [4]: 89 % of control
T/C [5]: 90 % of control

CN(C)CCC(=O)C(=Cc1c(Cl)cccc1Cl)C(=O)CCN(C)C
T/C (dose: 7.5 mg/kg/injection, schedule: Q01DX005 (ip), vehicle: saline): 119 % of control and 120 % of control
T/C (dose: 15.0 mg/kg/injection, schedule: Q01DX005 (ip), vehicle: saline): 120 % of control and 123 % of control
